{
  "source": "patent US20150125515A1",
  "about": "“NOVEL SP-B & SP-C PEPTIDES, SYNTHETIC LUNG SURFACTANTS, AND USE THEREOF” (UNIVERSITY OF ROCHESTER, priority 2012, published 2015)",
  "key": {"[1]": {"assay": "Adsorption of surfactant compositions to the air-water interface (surface pressure vs time, Wilhelmy method)", "type": "physicochemical", "conditions": "for adsorption compared with lung surfactant (CLSE in Table 7): 3% by weight peptide with 5:3:2 (molar ratio) DPPC:POPC:POPG; for adsorption, result in words: peptide 3% by weight with synthetic ester linked phospholipids 5:3:2 DPPC:POPC:POPG", "experimental": "Surface activity of synthetic peptide/lipid surfactant compositions was assessed by either or both of the following methods: (1) measurement of the adsorption of surfactant compositions to the air-water interface as a function of time, and (2) measurement of overall dynamic surface activity on a pulsating bubble surfactometer (general methodological details of these two experimental techniques are described by Notter, Lung Surfactants: Basic Science and Clinical Applications, Marcel Dekker, Inc, New York (2000), which is hereby incorporated by reference in its entirety).\nIn adsorption studies, a given surfactant mixture was injected at time zero beneath the surface of a stirred surfactant-free subphase, and surface pressure (defined as surface tension lowering below that of the pure subphase) was measured as a function of time from the force on a hanging platinum slide (“Wilhelmy” method). By definition, higher surface pressure corresponds to lower surface tension (Notter, Lung Surfactants: Basic Science and Clinical Applications, Marcel Dekker, Inc, New York (2000))."}, "[2]": {"test_system": "ventilated rabbits with ARDS induced by saline lavage", "assay": "Saline-lavage ventilated rabbit model of ARDS: arterial oxygenation and dynamic compliance", "type": "in vivo, New Zealand white rabbits", "conditions": "for Oxygenation and lung compliance after instillation (FIG. 1): SP-B mimics 3.0% by weight in 5:3:2 (weight ratio) DPPC:POPC:POPG; for Oxygenation and lung compliance after instillation (FIG. 1) / Oxygenation and lung compliance after instillation (FIG. 2): PBS pH 7.4, 35 mg/mL; for Oxygenation and lung compliance after instillation (FIG. 1) / relative order of pulmonary activity in terms of oxygenation / relative pulmonary activity with respect to lung compliance / Oxygenation and lung compliance after instillation (FIG. 2) / relative order of pulmonary activity in terms of oxygenation and lung compliance: intratracheal 100 mg/kg; for Oxygenation and lung compliance after instillation (FIG. 1) / relative order of pulmonary activity in terms of oxygenation / relative pulmonary activity with respect to lung compliance: over 120 min; for relative order of pulmonary activity in terms of oxygenation / relative pulmonary activity with respect to lung compliance: SP-B mimics 3.0% by weight in 5:3:2 DPPC:POPC:POPG; for Oxygenation and lung compliance after instillation (FIG. 2): SP-C mimics 3.0% by weight in 5:3:2 (weight ratio) DPPC:POPC:POPG; for relative order of pulmonary activity in terms of oxygenation and lung compliance: SP-C mimics 3.0% by weight in 5:3:2 DPPC:POPC:POPG", "experimental": "Saline lavage produces surfactant deficiency, alveolar collapse and lung edema in ventilated rats and rabbits, and is a useful experimental model for human ARDS. A saline-lavage rabbit model for lung injury was thus used to compare synthetic surfactants, with lipids only as negative control. Restoration of lung function was assessed by serial monitoring of gas exchange and lung mechanics. Physiological activity results for selected synthetic SP-B peptides are shown below, and physiological activity results for selected synthetic SP-C peptides are included in following Example 8.\nAnimal experiments were performed following established protocols approved by the Animal Care and Use Committee at the Los Angeles Biomedical Research Institute at Harbor-UCLA Medical Center. […] In brief, experimental animals were commercially available young adult male New Zealand white rabbits whose respiratory function was followed during mechanical ventilation by measurements of serial arterial blood gases and pulmonary compliance over the first 2 hours after a standardized saline lavage protocol. For this timeframe of study, the model reflected a relatively pure state of surfactant insufficiency in animals with mature lungs. Saline lavage administration was performed after induction of anesthesia, insertion of a venous line in a marginal ear vein, endotracheal intubation and initiation of mechanical ventilation, muscle paralysis, and insertion of a carotid arterial line. Heart rate, arterial blood pressure and rectal temperature were measured continuously. After stabilization on the ventilator, saline lavage was performed with repeated intratracheal instillation and removal of 30 mL of normal saline until the PaO2 dropped below 100 mm Hg (average 3 lavages). Maintenance fluid was provided by a continuous infusion of Lactated Ringer's solution at a rate of 10 ml/kg/h. Edema fluid appearing in the trachea was removed by suctioning. When the PaO2 was stable at less than 100 mm Hg in saline lavaged animals, an experimental or control surfactant mixture was instilled into the trachea at a dose of 100 mg/kg body weight and a concentration of 35 mg/mL. The rabbits were ventilated using a Harvard volume-controlled animal ventilator (tidal volume 7.5 ml/kg, a positive end-expiratory pressure [PEEP] of 3 cm H2O, an inspiratory/expiratory ratio of 1:2, 100% oxygen, and a respiratory rate to maintain a PaCO2 at ˜40 mm Hg). Airway flow and pressures and tidal volume were monitored continuously with a pneumotachograph connected to the endotracheal tube and a pneumotach system. Arterial pH and blood gases were done every 15 minutes. Dynamic lung compliance was calculated by dividing tidal volume/kg body weight by changes in airway pressure (peak inspiratory pressure minus positive end-expiratory pressure) (mL/kg/cmH2O). Animals were sacrificed 2 h after surfactant administration with an overdose of pentobarbital. End-points are pulmonary gas exchange (arterial pH, PaCO2 and PaO2) and pulmonary mechanics (dynamic compliance, postmortem pressure-volume curves). Each treatment group consisted of n=4-9 animals.\nThe in vivo pulmonary activity of reduced MB DATK and SMB DATK was investigated in comparison with oxidized SMB and MB (positive controls) and lipids alone (negative control) over 120 min, following intratracheal instillation of these surfactants into ventilated rabbits with ARDS induced by saline lavage. Oxidized SMB and MB were used as positive controls, because these SP-B mimics previously indicated high in vivo surfactant activities equal to those of native, full-length porcine SP-B in ventilated rats with ARDS (Walther et al., “Critical Structural and Functional Roles for the N-terminal Insertion Sequence in Surfactant Protein B Analogs,” PLoS One 5:e8672 (2010), which is hereby incorporated by reference in its entirety). […]"}},
  "note": "Bridges are numbered along the chain shown (N, C = ends). Roman numbers before positions name the chains, in order. Where no end group is shown, it is not given here.",
  "data": [
    {"substance": "CWLCRALIKRIQAMIDATKRMLPQLVCRLVLRCS (not fully specified (residues 1, 33, bridges); cysteine pairing not given here) [MB DATK_Red]", "values": [
      {"measurement": "adsorption activity relative to that previously reported for MB without the DATK substitution", "setting": "[1]; Table 10 conditions, 3% by weight with 5:3:2 DPPC:POPC:POPG", "result": "improved"},
      {"measurement": "Oxygenation and lung compliance after instillation (FIG. 1)", "setting": "[2]", "result": "increased quickly"},
      {"measurement": "relative order of pulmonary activity in terms of oxygenation", "setting": "[2]", "result": "reduced SMB DATK˜SMB_Ox˜MB_Ox>reduced MB DATK>Lipids alone"},
      {"measurement": "relative pulmonary activity with respect to lung compliance", "setting": "[2]", "result": "reduced SMB DATK>SMB_Ox˜reduced MB DATK˜MB_Ox>Lipids alone"}
    ]},
    {"substance": "FGIPFFPVHLKRLLILLLL-CONH2 (FGIPFFPVHLKRLLILLLL-NH2) [Mini-SPCff_2_leu]", "values": [
      {"measurement": "adsorption compared with lung surfactant (CLSE in Table 7)", "setting": "[1]", "result": "equaling that of lung surfactant"}
    ]},
    {"substance": "FPIPLPYCWLCRALIKRIQAMIDATKRMLPQLVCRLVLRCS (not fully specified (residues 8, 40); cysteine pairing not given here) [SMB DATK_Red]", "values": [
      {"measurement": "arterial oxygenation and dynamic compliance compared with reduced MB DATK", "setting": "[2]; FIG. 1, 3.0% by weight in 5:3:2 DPPC:POPC:POPG", "result": "significantly higher"},
      {"measurement": "Oxygenation and lung compliance after instillation (FIG. 1)", "setting": "[2]", "result": "increased quickly"},
      {"measurement": "relative order of pulmonary activity in terms of oxygenation", "setting": "[2]", "result": "reduced SMB DATK˜SMB_Ox˜MB_Ox>reduced MB DATK>Lipids alone"},
      {"measurement": "relative pulmonary activity with respect to lung compliance", "setting": "[2]", "result": "reduced SMB DATK>SMB_Ox˜reduced MB DATK˜MB_Ox>Lipids alone"}
    ]},
    {"substance": "GIPFFPVHLKRLLIKVVVEELIVKVIVGALLMGL (SP-C FF Ion Lock2 K15/E19;E20/K24) [SP-C ion-lock2ff]", "values": [
      {"measurement": "adsorption, result in words", "setting": "[1]", "result": "substantial rapid adsorption"}
    ]},
    {"substance": "GIPSSPVHLKRLLIVVVVVELIVKVIVGALLMGL (SP-C SS Ion Lock + L E20/K24) [SP-Css ion-lock]", "values": [
      {"measurement": "adsorption, result in words", "setting": "[1]", "result": "substantial rapid adsorption"},
      {"measurement": "Oxygenation and lung compliance after instillation (FIG. 2)", "setting": "[2]", "result": "increased quickly"},
      {"measurement": "relative order of pulmonary activity in terms of oxygenation and lung compliance", "setting": "[2]", "result": "SP-C33˜SP-Css ion-lock>SP-Cff>Lipids alone"}
    ]},
    {"substance": "IPSSPVHLKRLKLLKLLLEEILLKILGALLMGL (SP-C33SS Ion Lock2 K15/E19;E20/K24) [SP-C33ss_ion2]", "values": [
      {"measurement": "adsorption, result in words", "setting": "[1]", "result": "substantial rapid adsorption"}
    ]},
    {"substance": "IPSSPVHLKRLKLLLLLLLLILLLILGALLMGL (SP-c33) [previously reported SP-C peptide (Almlen et al. 2007)]", "values": [
      {"measurement": "Oxygenation and lung compliance after instillation (FIG. 2)", "setting": "[2]", "result": "rapidly increased"},
      {"measurement": "relative order of pulmonary activity in terms of oxygenation and lung compliance", "setting": "[2]", "result": "SP-C33˜SP-Css ion-lock>SP-Cff>Lipids alone"}
    ]},
    {"substance": "LGIPCFPSSLKRLLIIVVV-CONH2 (chain 1 LGIPCFPSSLKRLLIIVVV-NH2; chain 2 LGIPCFPSSLKRLLIIVVV-NH2; disulfide I:5-II:5 (inferred)) [Mini-C dog cf_cys5 dimer]", "values": [
      {"measurement": "adsorption compared with lung surfactant (CLSE in Table 7)", "setting": "[1]", "result": "equaling that of lung surfactant"}
    ]},
    {"substance": "LGIPFFPSSLKRLLIILLL-CONH2 (LGIPFFPSSLKRLLIILLL-NH2) [Mini-SPCff_dog_leu]", "values": [
      {"measurement": "adsorption compared with lung surfactant (CLSE in Table 7)", "setting": "[1]", "result": "equaling that of lung surfactant"}
    ]},
    {"substance": "LGIPFFPSSLKRLLIIVVV-CONH2 (LGIPFFPSSLKRLLIIVVV-NH2) [Mini-SPCff_dog]", "values": [
      {"measurement": "adsorption compared with lung surfactant (CLSE in Table 7)", "setting": "[1]", "result": "equaling that of lung surfactant"}
    ]}
  ]
}
